Data set [1] can be described thus: Partition coefficient (logP). The format is physicochemical. As to conditions: octanol/water.
The species entered for data set [2] is Mus musculus. Description: (§1) Compound is evaluated in vitro for percent metabolism by mouse liver microsomes. The format is functional. The arrangement: concentration or dose not given beside the values. A general note: Liver microsomes are a subcellular fraction often used to study metabolism.
For data set [3], the system named is Mus musculus. Nature of the data set: Antitumor activity is evaluated as the percent increase in lifespan of TLX/5 tumor bearing animals at 25 mg/kg, daily x 5. The format is functional.
The test system of data set [4] is Mus musculus. Description: Antitumor activity is evaluated as the percent increase in lifespan of TLX/5 tumor bearing animals at 200 mg/kg, daily x 5. The format is functional.
Data set [5] has as its system Mus musculus. Nature of the data set: Antitumor activity is evaluated as the percent increase in lifespan of TLX/5 tumor bearing animals at 100 mg/kg, daily x 5. In kind it is functional.
Data set [6] has as its system Mus musculus. Description: Antitumor activity is evaluated as the percent increase in lifespan of TLX/5 tumor bearing animals at 400 mg/kg, daily x 5. The format is functional.
For data set [7], the species on record is Mus musculus. Description: Compound is evaluated for maximum percentage of increase in life span (ILS) in tumor bearing mice.
Data set [8] deals with Mus musculus. Nature of the data set: Antitumor activity is evaluated as the percent increase in lifespan of TLX/5 tumor bearing animals at 50 mg/kg, daily x 5. In kind it is functional.
The species named for data set [9] is Mus musculus. Nature of the data set: Compound is evaluated in vitro for percent demethylation by mouse liver microsomes. The format is functional.
For data set [10], the species on record is Mus musculus. Nature of the data set: (§2) Compound is evaluated in vitro for percent dealkylation by mouse liver microsomes. The format is functional. Further details: concentration or dose not given beside the values.
In data set [11] the test system is Mus musculus. Nature of the data set: Antitumor activity is evaluated as the percent increase in lifespan of TLX/5 tumor bearing animals at 12.5 mg/kg, daily x 5. The format is functional.
The species named for data set [12] is Mus musculus. Described as §1. The format is functional.
The species entered for data set [13] is Mus musculus. The description is as §2. The format is functional.

Usually logP stands for the decadic logarithm of the partition coefficient of the neutral form, usually between octanol and water.

As to `CCCCN(C)/N=N/c1ccc(C(=O)O)cc1`, in data set [1] (read-out: logP), the log partition coefficient (logP) worked out at 0.97.

Regarding `CCCCN(C)/N=N/c1ccc(C(N)=O)cc1`, the logP in [1] (read-out: logP) was found to be 2.46. The Activity in the data set listed under Mus musculus [2] was 55%; in the data set filed under Mus musculus [9], 21.5%; in the data set filed under Mus musculus [10] it was 33.5%. Besides, the Increase is 23% in the data set with Mus musculus [3]; -12% in the data set on Mus musculus [4]; 83% in the data set on Mus musculus [5]; -51% with Mus musculus [6]; 91% in the data set on Mus musculus [8]; 18% with Mus musculus [11]. Besides, in the data set listed under Mus musculus [7], the max % ILS per µmol/kg is 0.426 %·kg/µmol.

For `CCCCCN(C)/N=N/c1ccc(C(=O)O)cc1`, the lipophilicity (logP) in data set [1] (read-out: logP) was 1.49.

With `C=CCN(C)/N=N/c1ccc(C(=O)O)cc1`, the logP in [1] (read-out: logP) was found to be 0.32.

Regarding `CCCN(C)/N=N/c1ccc(C(N)=O)cc1`, the results for the Activity in the data set listed under Mus musculus [2], in the data set filed under Mus musculus [9] and in the data set listed under Mus musculus [10] were 58.3%, 25.3% and 33%, respectively. In addition, the Increase with Mus musculus [3] was 113%; in the data set with Mus musculus [4], 20%; in the data set with Mus musculus [5] it was 41%; in the data set with Mus musculus [6], -45%; in the data set on Mus musculus [8], 60%; in the data set on Mus musculus [11], 7%. Further, the max % ILS per µmol/kg in the data set filed under Mus musculus [7] stood at 0.996 %·kg/µmol.

In the case of `CCCCCCCCN(C)/N=N/c1ccc(C(N)=O)cc1`, the lipophilicity (logP) in data set [1] (read-out: logP) amounted to 4.7. The Activity was 19.5% in the data set listed under Mus musculus [2], 11.5% in the data set listed under Mus musculus [9] and 8% in the data set listed under Mus musculus [10]. Moreover, the Increase in the data set on Mus musculus [3] is given as 4%; with Mus musculus [4] it was 112%; with Mus musculus [5], 19%; in the data set on Mus musculus [6] it was 56%; with Mus musculus [8] it was 4%; in the data set with Mus musculus [11], -2%. Also, the max % ILS per µmol/kg in the data set listed under Mus musculus [7] was 0.163 %·kg/µmol.

For the molecule `CCCCCCCN(C)/N=N/c1ccc(C(=O)O)cc1`, in data set [1] (read-out: logP), the logP was 2.58.

Regarding `CN(O)/N=N/c1ccc(C(N)=O)cc1`, the Increase with Mus musculus [4] came to 37%; in the data set with Mus musculus [5], 19%; with Mus musculus [6], 55%; in the data set on Mus musculus [8], 19%. Moreover, the max % ILS per µmol/kg in the data set listed under Mus musculus [7] was 0.036 %·kg/µmol.

`CCN(C)/N=N/c1ccc(C(N)=O)cc1`: the logP in [1] (read-out: logP) is 1.7. Also, the values for the Activity in the data set listed under Mus musculus [2], in the data set listed under Mus musculus [9] and in the data set listed under Mus musculus [10] were 61.8%, 28.2% and 33.7%, respectively. Besides, the Increase with Mus musculus [3] was 84%; in the data set with Mus musculus [4], -31%; in the data set with Mus musculus [5] it was 76%; in the data set with Mus musculus [6] it was -49%; in the data set on Mus musculus [8] it was 100%; in the data set on Mus musculus [11] it was 7%. Further, in the data set listed under Mus musculus [7], the max % ILS per µmol/kg was 0.693 %·kg/µmol.

For the molecule `CCCCCCCN(C)/N=N/c1ccc(C(N)=O)cc1`, the Increase is 6% in the data set on Mus musculus [3]; 15% in the data set with Mus musculus [4]; 65% in the data set on Mus musculus [5]; -20% with Mus musculus [6]; 15% with Mus musculus [8]; 2% in the data set with Mus musculus [11]. For the same molecule, the Activity in the data set listed under Mus musculus [12] is 23%; in the data set filed under Mus musculus [13] it was 12%; in the data set listed under Mus musculus [9] it was 11%. The same molecule displayed a max % ILS per µmol/kg in the data set listed under Mus musculus [7] of 0.18 %·kg/µmol.

For the molecule `C#CCN(C)/N=N/c1ccc(C(=O)O)cc1`, the logP in data set [1] (read-out: logP) came to 0.

`CC(C)N(C)/N=N/c1ccc(C(=O)O)cc1`: in data set [1] (read-out: logP), the log partition coefficient (logP) came to 0.34.

For the molecule `CN(Cc1ccccc1)/N=N/c1ccc(C(N)=O)cc1`, the Increase in the data set on Mus musculus [3] was -1%; with Mus musculus [4], 86%; in the data set with Mus musculus [5], 9%; in the data set on Mus musculus [6], -36%; in the data set with Mus musculus [8] it was 3%; with Mus musculus [11], -3%. For the same molecule, in the data set listed under Mus musculus [7], the max % ILS per µmol/kg amounted to 0.145 %·kg/µmol.

Regarding `CCCCCCN(C)/N=N/c1ccc(C(=O)O)cc1`, the logP in [1] (read-out: logP) came to 1.95.

In data set [1], `CN(C)/N=N/c1ccc(C(=O)O)cc1` showed a log partition coefficient (logP) of -0.44.

On to `CCCCCN(C)/N=N/c1ccc(C(N)=O)cc1`, for which the Activity was 41.5% in the data set listed under Mus musculus [2], 18% in the data set filed under Mus musculus [9] and 23.5% in the data set listed under Mus musculus [10]. Moreover, the Increase is on record as 7% with Mus musculus [3]; -28% with Mus musculus [4]; 71% with Mus musculus [5]; -51% in the data set on Mus musculus [6]; 79% in the data set with Mus musculus [8]; 3% with Mus musculus [11]. The max % ILS per µmol/kg in the data set filed under Mus musculus [7] turned out to be 0.392 %·kg/µmol.

In the case of `CN(/N=N/c1ccc(C(N)=O)cc1)C(C)(C)C`, the Increase is listed as -4% in the data set with Mus musculus [3]; 0% in the data set with Mus musculus [4]; 0% in the data set on Mus musculus [5]; -2% with Mus musculus [8]; 4% in the data set with Mus musculus [11].

Turning to `CC(C)N(C)/N=N/c1ccc(C(N)=O)cc1`, the logP in data set [1] (read-out: logP) came to 2. The Increase in the data set with Mus musculus [3] is given as 52%; in the data set with Mus musculus [4], -10%; with Mus musculus [5], 41%; in the data set on Mus musculus [6], -60%; in the data set with Mus musculus [8], 45%; in the data set with Mus musculus [11], 21%. In the data set filed under Mus musculus [7], this molecule returned a max % ILS per µmol/kg of 0.458 %·kg/µmol.

As for `CCCN(C)/N=N/c1ccc(C(=O)O)cc1`, the lipophilicity (logP) in [1] (read-out: logP) stood at 0.46.

For `CCC(C)CN(C)/N=N/c1ccc(C(=O)O)cc1` (stereo not drawn), the log partition coefficient (logP) in data set [1] (read-out: logP) was found to be 1.33.

Turning to `CN(C)/N=N/c1ccc(C(N)=O)cc1`, the figures for the Activity in the data set filed under Mus musculus [2], in the data set filed under Mus musculus [9] and in the data set filed under Mus musculus [10] were 57.3%, 55.5% and 1.8%, respectively. Also, the Increase with Mus musculus [3] was 47%; in the data set on Mus musculus [4], -7%; in the data set on Mus musculus [5] it was 51%; with Mus musculus [6], -26%; with Mus musculus [8], 65%; with Mus musculus [11] it was 94%. In the data set filed under Mus musculus [7], this molecule showed a max % ILS per µmol/kg of 1.45 %·kg/µmol.

Regarding `CON(C)/N=N/c1ccc(C(N)=O)cc1`, the Increase in the data set with Mus musculus [3] is on record as -3%; in the data set on Mus musculus [4], -7%; with Mus musculus [5] it was -3%; in the data set with Mus musculus [6] it was -3%; with Mus musculus [8] it was -5%; in the data set on Mus musculus [11], -3%.

Take `CCCCCCCCCCCCN(C)/N=N/c1ccc(C(N)=O)cc1`: the Increase with Mus musculus [3] is on record as 3%; with Mus musculus [4] it was 13%; in the data set with Mus musculus [5] it was -1%; in the data set on Mus musculus [6], 9%; in the data set with Mus musculus [8] it was 3%; in the data set on Mus musculus [11] it was 1%. Also, in the data set listed under Mus musculus [7], the max % ILS per µmol/kg worked out at 0.023 %·kg/µmol.

Take `CCN(CC)/N=N/c1ccc(C(N)=O)cc1`: the Activity was 53.3% in the data set filed under Mus musculus [2], 0% in the data set filed under Mus musculus [9] and 53.3% in the data set filed under Mus musculus [10].

For `CCCCCCN(C)/N=N/c1ccc(C(N)=O)cc1`, the Activity stood at 27% in the data set filed under Mus musculus [2], 13% in the data set filed under Mus musculus [9] and 14% in the data set filed under Mus musculus [10]. Also, the Increase in the data set on Mus musculus [3] was determined as 9%; in the data set on Mus musculus [4], 56%; in the data set on Mus musculus [5], 83%; in the data set with Mus musculus [6], 30%; in the data set on Mus musculus [8], 11%; with Mus musculus [11], 4%. This molecule returned a max % ILS per µmol/kg in the data set listed under Mus musculus [7] of 0.218 %·kg/µmol.

Take `CN(CCO)/N=N/c1ccc(C(N)=O)cc1`: the Increase was 0% in the data set on Mus musculus [3]; 42% with Mus musculus [4]; 7% with Mus musculus [5]; 38% with Mus musculus [6]; 5% with Mus musculus [8]; 1% in the data set with Mus musculus [11]. The molecule further showed a max % ILS per µmol/kg in the data set filed under Mus musculus [7] of 0.047 %·kg/µmol.

For `CCN(C)/N=N/c1ccc(C(=O)O)cc1`, in [1] (read-out: logP), the lipophilicity (logP) was determined as 0.04.

As for `CCCCCCCCN(C)/N=N/c1ccc(C(=O)O)cc1`, the logP in data set [1] (read-out: logP) amounted to 2.77.

The values are drawn from ChEMBL document CHEMBL1122746, “Tumor inhibitory triazenes. 3. Dealkylation within an homologous series and its relation to antitumor activity” (J Med Chem, 1984).
